# Test results from patent US20020032581A1, “Single-patient drug trials used with accumulated database: risk of habituation” (priority 2000, published 2002).
# Where a name gives a salt, the structure may show the parent alone.
# Assays:
# hypertensive person = assay: double-blind single-patient trial of sustained release verapamil vs sustained release propranolol; type: in vivo, human; settings: for mean systolic blood pressure increases: verapamil 240 mg once daily vs propranolol 180 mg once daily; for mean systolic blood pressure increases / mean diastolic pressure: little difference between drugs; for mean diastolic pressure: throughout the six week trial
# Method: In this example, the validity of using a sustained release formulation of verapamil 240 mg once daily as a therapeutic alternative to sustained release propranolol 180 mg once daily in a hypertensive person is shown. The trial during which the two medications are randomly administered in a double-blind manner is six weeks. The questionnaire used is set up in a manner similar to that described in above examples except that the questions elicit information related to the disease of hypertension. Blood pressure and adverse event reports are taken daily by the patient. […] Sleepiness is reported at equal rates for both drugs. All values are statistically insignificant and the therapeutic alternative selection is objectively validated.
# individual patient = assay: SPAS single-patient abuse potential test (liking score); settings: for difference of liking score vs placebo: drug minus placebo; for liking score: on drug, codeine: person, diazepam: person, nicotine: person, on average
# Method: Single-patient drug kits can be designed to test for “liking scores,” “abuse potential scores,” and patient's desire to re-use the test article compared to placebo and positive controls.
# In this example, the abuse potential of the narcotic analgesic codeine is tested. A single-patient trial is conducted in a patient for whom treatment with codeine is deemed appropriate. The patient receives a SPAS test kit containing codeine, an alternative drug, e.g., ibuprofen and a questionnaire designed to elicit the liking score, desirability to re-use test article and abuse potential of the patient to codeine.
# In another example, in follow-up to the test above, the clinician compares diazepam to secobarbital in the same patient.
# [1] = system: previously tested patients; assay: follow-up of previously tested similar patients for addiction / smoking; settings: for level of addiction on follow-up of similar patients: human, in vivo
# hyperactive child = assay: single-patient drug trial of methylphenidate vs placebo (SPAS kit, parent/school questionnaires); type: in vivo, human
# Method: The usefulness of methylphenidate (Ritalin) treatment in a hyperactive child (Minimum Brain Dysfunction or Attention Deficit Disorder) is evaluated.
# Consists of instructions, “calendar” packaging for drug and a substantially identical looking placebo to assure appropriate dosing and monitoring of compliance, questionnaires and assessment forms and instructions. Completed forms are sent to a neutral observer who has previously assigned the randomized, multiple-crossover schedule of drug and placebo periods. Only the observer has access to when active drug and placebo are taken and only the observer analyzes the data (exception: open-label or single-blind trials). Results are mailed to the physician and, in this case, parent for use in evaluating the usefulness of the therapy. The physician and parent are contacted, e.g., every three months to provide data on therapies utilized, and perceived outcome, until the condition is resolved. The data is also added to a post-marketing surveillance database for use in evaluating future individual study results, and for access by drug companies, regulatory agencies, and health care organizations.
# The questionnaire portion of the kit includes an initial consent form for the parent or guardian to complete. The questionnaire also provides background information on the study and possible side effects associated with the medication. Also included therein is a form for providing relevant patient and family histories. More importantly, the questionnaire, in this case includes a portion for the weekly input by parents/guardians and school observers for answers to questions relating to the drug evaluation. Physician questionnaires are similarly arranged.
# The kit described in Example 1 is used to again evaluate the usefulness of methylphenidate (Ritalin) treatment in a hyperactive child except that all interested parties have the benefit of a set of data generated from a pool of patients having a similar need for treatment. […]
# [2] = system: patients with the same disorder (hyperactive child); assay: pooled SPAS database and follow-up of patients continued on methylphenidate 40 mg daily; type: in vivo, human
# Method: All results obtained from the data are compared against the results provided by data amassed from a pool of about 200 patients with the same disorder. If, of these 200 patients, 55 experience encouraging results (along with the current patient) they are continued on 40 mg daily treatment. If, of these 55 patients, 5 are lost to follow-up, with 50 remaining for prospective evaluation, the physician continues the patient on 40 mg methylphenidate daily based solely on the isolated SPAS single-patient drug trial results. The physician then reviews the pooled data on the 50 patients. This will be done to understand under what circumstances this individual patient is likely to continue to show benefit from methylphenidate 40 mg treatment, and what conditions lead to treatment failure.
# If for example, the pool of 50 patients who continue treatment have the following scores following the original SPAS testing:
# All 50 patients are followed up by telephone interview monthly for nine months or more, and outcomes are prospectively documented.
# [3] = system: patient with perennial allergic rhinitis; settings: for incidence of sedation: day 4 of treatment
# [4] = system: patients with allergic rhinitis; assay: database follow-up of similar patients placed on CM; type: in vivo, human; settings: year long follow-up
# Method: It is determined that they are a candidate for the individual patient formulary management control system. They are considered a candidate because there are similar patients, e.g. 50, in the database, and 40 of them are placed on CM rather than CL based upon the outcome of single-patient drug trials. […] If CL is found to be more acceptable considering the safety, effectiveness and desirability data of the individual patient questionnaire, the co-pay is the same low rate as for CM.
# [5] = pool of 50 patients who continue treatment
compound,measurement,setting,value
COc1ccc(CCN(C)CCCC(C#N)(c2ccc(OC)c(OC)c2)C(C)C)cc1OC (stereo not shown) [verapamil],sleepiness reported,"hypertensive person; six week trial, both drugs",equal rates
same,mean systolic blood pressure increases,hypertensive person; six week trial,3%
same,mean diastolic pressure,hypertensive person,essentially stable
CC(C)NCC(O)COc1cccc2ccccc12 (stereo not shown) [propranolol],sleepiness reported,"hypertensive person; human, in vivo",equal rates
same,mean systolic blood pressure increases,hypertensive person; six week trial,3%
same,mean diastolic pressure,hypertensive person,essentially stable
CN1CCCC1c1cccnc1 (stereo not shown) [nicotine],difference of liking score vs placebo,individual patient,3 units
same,liking score,individual patient,4 out of 5
same,are smokers,[1]; female Caucasian patients 15 to 17 years old with similar 3-unit difference,820 out of 975
COC(=O)C(c1ccccc1)C1CCCCN1 (stereo not shown) [methylphenidate],patient's attention span,"hyperactive child; 40 mg daily as 10 mg four times daily, periods when methylphenidate is given vs placebo",improved substantially
same,teacher comments,hyperactive child; during methylphenidate dosing periods,corroborate improved attention span
same,sleep patterns,"hyperactive child; during methylphenidate periods, 40 mg daily",statistically altered
same,show severe episodes of bizarre behaviors,"[2]; patients with statistically altered sleep patterns on SPAS testing, within two months",90%
same,patients experience grand mal seizures,"[2]; patients with statistically altered sleep patterns, within two months",two
same,Sleep Patterns: have been statistically altered,[2]; [5],50%
same,Sleep Patterns: have not been statistically altered,[2]; [5],50%
same,Teacher Comments: corroborate improved attention span,[2]; [5],80%
same,Teacher Comments: do not corroborate improved attention span,[2]; [5],20%
same,Attention Span: have substantial improvement,"[2]; pool of 50 patients who continue treatment, 40 mg daily",100%
"CCOC(=O)N1CCC(=C2c3ccc(Cl)cc3CCc3cccnc32)CC1 [CL, loratidine]",incidence of sedation,[3],2 on a 3 point scale
COc1ccc2c3c1O[C@H]1[C@@H](O)C=C[C@H]4[C@@H](C2)N(C)CC[C@@]341 [codeine],difference of liking score vs placebo,individual patient,2 units
same,liking score,individual patient,3 out of 5
same,became addicted,[1]; Caucasian female patients 30 to 40 years with 0 unit difference,10 out of 1250
same,became addicted,"[1]; black male patients 40 to 50 years old with 2-unit difference, treated with codeine",25 out of 600
same,became addicted,[1]; similar patients with 3 unit differences,50 out of 110
"CN(C)CCC(c1ccc(Cl)cc1)c1ccccn1 (stereo not shown) [CM, chlorpheniramine maleate]",patients well maintained,[4],37 of the 40
same,patient's symptoms on reevaluation,[3]; 6 and 12 months post-initiation of CM treatment,well maintained
same,incidence of sedation,[3],2 on a 3 point scale
same,"most bothersome symptom, sneezing","[3]; person, dust mite protein allergy",similarly and effectively controlled
CN1C(=O)CN=C(c2ccccc2)c2cc(Cl)ccc21 [diazepam],difference of liking score vs placebo,individual patient,0 units
same,liking score,individual patient,4 out of 5
same,level of addiction on follow-up of similar patients,[1],comparatively low level of addiction
C=CCC1(C(C)CCC)C(=O)NC(=O)NC1=O (stereo not shown) [secobarbital],"difference in liking scores, diazepam compared to secobarbital",individual patient; same patient,greater addiction potential
same,level of addiction on follow-up of similar patients,[1],high level of addiction
